Results as given in US20250296938A1, “Compounds that Interact with the Ras Superfamily for the Treatment of Cancers, Inflammatory Diseases, Rasopathies, and Fibrotic Disease” (SHY Therapeutics, LLC, priority 2018, published 2025).

Legend:
[1] = system: IL-6; experiment: Mouse IL6 quantification assay, LPS-stimulated RAW 264.7 macrophages; type: cell-based; details: for inhibition at 30 µM: RAW264.7, 30 μM, LPS-stimulated RAW 264.7 macrophages
Procedure: (§1) Cell lines: Abelson murine leukemia virus transformed macrophage cell line RAW 264.7 was purchased from ATCC and grown in complete DMEM-High Glucose medium supplemented with penicillin (100 U/mL), streptomycin (100 μg/mL), and 10% heat-inactivated FBS at 37° C. in a humidified incubator with 5% CO2.
(§2) Method: Cells were plated at 25000-40000 cells/well density in a 96-well plate. After a 3-hour incubation, macrophages were starved with DMEM plus 0.5% FBS overnight. The next day the small molecules to be tested were added to the cells in the final concentration of 30 μM (with 0.3% DMSO) 3 hours prior to LPS stimulation (100 ng/ml). After LPS stimulation cells were incubated at 37° C. for 16 h. Alternatively, compounds were also tested at 10 μM and LPS (100 ng/ml) was added concurrently and incubated 5 hours at 37° C. At the end of the incubation periods, culture medium was collected and production of LPS-induced TNF-α and IL-6 cytokine was measured using ELISA detection kits.
(§3) Sandwich ELISA: The ELISA Immunoassays Quantikine Mouse TNF-alpha (catalog number MTA00B) and IL6 (catalog number M6000B) were purchased from R&D Systems Inc., Minneapolis, MN. These 4.5 hours solid phase ELISAs were used to measure mouse TNF-α or IL-6 levels in macrophages culture supernatants. Assays were executed according to the manufacturer specifications.

[2] = system: TNF-α; experiment: Mouse TNF alpha quantification assay, LPS-stimulated RAW 264.7 macrophages; type: cell-based; details: for inhibition at 30 µM: RAW264.7, 30 μM, LPS-stimulated RAW 264.7 macrophages
Procedure: as §1, §2, §3

[3] = system: MAPK phosphorylation; experiment: MAPK cell-based phosphorylation assay (ELISA or Western), PANC-1; details: Homo sapiens; 10 μM, PANC-1 (Table 4C)
How it was run: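 Serum-starved (0.5% FBS overnight) cells given compound at 10 μM or serial dilutions (0.3% DMSO) for 6 h at 37 °C, then 1.5 ng/mL EGF for 15 min. Phospho-MAPK read by fixed-cell ELISA (fluorescence, 595 nm) or by Western blot of lysates with anti-phospho-p44/42 (Thr202/Tyr204).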

[4] = system: AKT phosphorylation; experiment: Western AKT cell-based phosphorylation assay, PANC-1; details: Homo sapiens, PANC-1 (Table 4C)
How it was run: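 PANC-1 cells, serum-starved overnight in 0.5% FBS, were treated with compound at 10 μM (0.3% DMSO) for 6 h at 37 °C and then stimulated with 1.5 ng/ml EGF for 15 min. Lysates (15–50 μg) were immunoblotted for phospho-Akt Ser473, with ECL detection.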

SMILES: Oc1nc(-c2ccccn2)nc(CN2CCc3ccccc3C2)c1O
- inhibition at 30 µM [1]: 0%
- inhibition at 30 µM [2]: 0%

SMILES: Cn1ccc(-c2sc3nc(-c4nccn4C)nc(N[C@@H]4CC[C@H](O)C4)c3c2-c2ccccc2)n1 (racemic) [drawing 774]
- inhibition at 10 µM ([1]; RAW264.7, 10 μM, LPS (100 ng/ml) added concurrently, 5 hours, RAW 264.7): 26 to 50%
- inhibition at 10 µM ([2]; RAW264.7, 10 μM, LPS (100 ng/ml) added concurrently, 5 hours, RAW 264.7, read-out: TNFα % Inhibition): 1 to 25%

SMILES: COCCNC(=O)c1sc2nc(-c3nccn3C)nc(N[C@@H]3CC[C@H](OC)C3)c2c1-c1ccccc1 [drawing 525]
- inhibition at 10 µM [3]: 0%
- inhibition at 10 µM [4]: 0%

SMILES: CO[C@H]1CC[C@@H](Nc2nc(-c3nccn3C)nc3sc(C(=O)N4CCCC4)c(-c4ccccc4)c23)C1 [drawing 526]
- inhibition at 10 µM [3]: 0%
- inhibition at 10 µM [4]: 0%

SMILES: CO[C@H]1CC[C@@H](Nc2nc(-c3nccn3C)nc3sc(C(=O)N4CCOCC4)c(-c4ccccc4)c23)C1 [drawing 527]
- inhibition at 10 µM [3]: 0%
- inhibition at 10 µM [4]: 0%

SMILES: COc1cccc(-c2csc3c(O)nc(-c4nccn4C)nc23)c1Cl [drawing 663]
- inhibition at 30 µM [1]: 76 to 100%
- inhibition at 30 µM [2]: 26 to 50%

SMILES: Cn1ccnc1-c1nc(O)c2scc(-c3ccccn3)c2n1 [drawing 664]
- inhibition at 30 µM [1]: 76 to 100%
- inhibition at 30 µM [2]: 76 to 100%

SMILES: Oc1nc(-c2ncc3n2CCCC3)nc2c(-c3ccccn3)csc12 [drawing 665]
- inhibition at 30 µM [1]: 76 to 100%
- inhibition at 30 µM [2]: 51 to 75%

SMILES: Oc1nc(-c2cn3ccccc3n2)nc2c(-c3ccccn3)csc12 [drawing 666]
- inhibition at 30 µM [1]: 76 to 100%
- inhibition at 30 µM [2]: 76 to 100%

SMILES: COCCn1ccnc1-c1nc(O)c2scc(-c3ccccn3)c2n1 [drawing 667]
- inhibition at 30 µM [1]: 76 to 100%
- inhibition at 30 µM [2]: 76 to 100%

SMILES: Cc1cc(Cn2ccnc2-c2nc(O)c3scc(-c4ccccn4)c3n2)on1 [drawing 668]
- inhibition at 30 µM [1]: 76 to 100%
- inhibition at 30 µM [2]: 51 to 75%

SMILES: Oc1nc(-c2nccn2Cc2ccccn2)nc2c(-c3ccccn3)csc12 [drawing 669]
- inhibition at 30 µM [1]: 76 to 100%
- inhibition at 30 µM [2]: 51 to 75%

SMILES: COc1cccc(Cn2ccnc2-c2nc(O)c3scc(-c4ccccn4)c3n2)c1 [drawing 670]
- inhibition at 30 µM [1]: 76 to 100%
- inhibition at 30 µM [2]: 76 to 100%

SMILES: Cc1cnc(-c2nc(O)c3scc(-c4ccccn4)c3n2)n1C [drawing 671]
- inhibition at 30 µM [1]: 76 to 100%
- inhibition at 30 µM [2]: 76 to 100%

SMILES: Cc1cn(C)c(-c2nc(O)c3scc(-c4ccccn4)c3n2)n1 [drawing 672]
- inhibition at 30 µM [1]: 76 to 100%
- inhibition at 30 µM [2]: 76 to 100%

SMILES: Oc1nc(-c2ncc3ccccn23)nc2c(-c3ccccn3)csc12 [drawing 673]
- inhibition at 30 µM [1]: 76 to 100%
- inhibition at 30 µM [2]: 76 to 100%

SMILES: Oc1nc(-c2cn3cccnc3n2)nc2c(-c3ccccn3)csc12 [drawing 674]
- inhibition at 30 µM [1]: 0%
- inhibition at 30 µM [2]: 0%

SMILES: Oc1nc(-c2cn(-c3ccccc3)cn2)nc2c(-c3ccccn3)csc12 [drawing 675]
- inhibition at 30 µM [1]: 76 to 100%
- inhibition at 30 µM [2]: 0%

SMILES: COc1ccc(Cn2cnc(-c3nc(O)c4scc(-c5ccccn5)c4n3)c2)cc1 [drawing 676]
- inhibition at 30 µM [1]: 76 to 100%
- inhibition at 30 µM [2]: 1 to 25%

SMILES: COCCCNc1nc(-c2nccn2C)nc2sc(-c3ccn(C)n3)c(-c3ccccc3)c12 [drawing 677]
- inhibition at 30 µM [1]: 76 to 100%
- inhibition at 30 µM [2]: 76 to 100%

SMILES: COCCCN(C)c1nc(-c2nccn2C)nc2sc(-c3ccn(C)n3)c(-c3ccccc3)c12 [drawing 678]
- inhibition at 30 µM [1]: 1 to 25%
- inhibition at 30 µM [2]: 51 to 75%

SMILES: COCC(C)Nc1nc(-c2nccn2C)nc2sc(-c3ccn(C)n3)c(-c3ccccc3)c12 (stereo not drawn) [drawing 679]
- inhibition at 30 µM [1]: 76 to 100%
- inhibition at 30 µM [2]: 76 to 100%

SMILES: COC1CCN(c2nc(-c3nccn3C)nc3sc(-c4ccn(C)n4)c(-c4ccccc4)c23)C1 (stereo not drawn) [drawing 680]
- inhibition at 30 µM [1]: 26 to 50%
- inhibition at 30 µM [2]: 1 to 25%

SMILES: Cn1ccc(-c2sc3nc(-c4nccn4C)nc(NC4CCOCC4)c3c2-c2ccccc2)n1 [drawing 681]
- inhibition at 30 µM [1]: 26 to 50%
- inhibition at 30 µM [2]: 1 to 25%

SMILES: Cn1ccc(-c2sc3nc(-c4nccn4C)nc(NCC4CCOC4)c3c2-c2ccccc2)n1 (stereo not drawn) [drawing 682]
- inhibition at 30 µM [1]: 76 to 100%
- inhibition at 30 µM [2]: 76 to 100%

SMILES: CO[C@H]1CCC(Nc2nc(-c3nccn3C)nc3sc(-c4ccn(C)n4)c(-c4ccccc4)c23)C1 (stereo partly drawn) [drawing 683]
- inhibition at 30 µM [1]: 76 to 100%
- inhibition at 30 µM [2]: 76 to 100%

SMILES: CO[C@@H]1CCC(Nc2nc(-c3nccn3C)nc3sc(-c4ccn(C)n4)c(-c4ccccc4)c23)C1 (stereo partly drawn) [drawing 684]
- inhibition at 30 µM [1]: 76 to 100%
- inhibition at 30 µM [2]: 76 to 100%

SMILES: COCC1CCN(c2nc(-c3nccn3C)nc3sc(-c4ccn(C)n4)c(-c4ccccc4)c23)C1 (stereo not drawn) [drawing 685]
- inhibition at 30 µM [1]: 76 to 100%
- inhibition at 30 µM [2]: 76 to 100%

SMILES: Cn1ccc(-c2sc3nc(-c4nccn4C)nc(N4CCC5(CCOC5)C4)c3c2-c2ccccc2)n1 (stereo not drawn) [drawing 686]
- inhibition at 30 µM [1]: 51 to 75%
- inhibition at 30 µM [2]: 0%

SMILES: COC1CCN(c2nc(-c3nccn3C)nc3sc(-c4ccn(C)n4)c(-c4ccccc4)c23)CC1 [drawing 687]
- inhibition at 30 µM [1]: 26 to 50%
- inhibition at 30 µM [2]: 26 to 50%

SMILES: COCCCNc1nc(-c2nccn2C)nc2sc(-c3ccn(C)n3)c(-c3ccc(OC)cc3)c12 [drawing 688]
- inhibition at 30 µM [1]: 76 to 100%
- inhibition at 30 µM [2]: 0%

SMILES: COCC(C)Nc1nc(-c2nccn2C)nc2sc(-c3ccn(C)n3)c(-c3ccc(OC)cc3)c12 (stereo not drawn) [drawing 689]
- inhibition at 30 µM [1]: 76 to 100%
- inhibition at 30 µM [2]: 0%

SMILES: COc1ccc(-c2c(-c3ccn(C)n3)sc3nc(-c4nccn4C)nc(N4CCC(OC)C4)c23)cc1 (stereo not drawn) [drawing 690]
- inhibition at 30 µM [1]: 1 to 25%
- inhibition at 30 µM [2]: 0%

SMILES: COCC(C)Nc1nc(-c2nccn2C)nc2sc(-c3ccccc3Cl)c(-c3cscn3)c12 (stereo not drawn) [drawing 691]
- inhibition at 30 µM [1]: 76 to 100%
- inhibition at 30 µM [2]: 76 to 100%

SMILES: COC1CCN(c2nc(-c3nccn3C)nc3sc(-c4ccccc4Cl)c(-c4cscn4)c23)C1 (stereo not drawn) [drawing 692]
- inhibition at 30 µM [1]: 51 to 75%
- inhibition at 30 µM [2]: 0%

SMILES: COCC(C)Nc1nc(-c2nccn2C)nc2sc(-c3cccc(OC)c3)c(-c3cscn3)c12 (stereo not drawn) [drawing 693]
- inhibition at 30 µM [1]: 26 to 50%
- inhibition at 30 µM [2]: 26 to 50%

SMILES: COc1cccc(-c2sc3nc(-c4nccn4C)nc(N4CCC(OC)C4)c3c2-c2cscn2)c1 (stereo not drawn) [drawing 694]
- inhibition at 30 µM [1]: 1 to 25%
- inhibition at 30 µM [2]: 1 to 25%

SMILES: COCCNc1nc(-c2nccn2C)nc2sc(-c3ccccc3Cl)c(-c3ccc(OC)cc3)c12 [drawing 695]
- inhibition at 30 µM [1]: 26 to 50%
- inhibition at 30 µM [2]: 0%

SMILES: COCCNc1nc(-c2nccn2C)nc2sc(-c3cccc(OC)c3)c(-c3ccc(OC)cc3)c12 [drawing 696]
- inhibition at 30 µM [1]: 76 to 100%
- inhibition at 30 µM [2]: 76 to 100%

SMILES: COCCNc1nc(-c2nccn2C)nc2sc(-c3cccc(OC)c3Cl)c(-c3ccc(OC)cc3)c12 [drawing 697]
- inhibition at 30 µM [1]: 26 to 50%
- inhibition at 30 µM [2]: 0%

SMILES: COCCNc1nc(-c2nccn2C)nc2sc(-c3cc(OC)ccc3Cl)c(-c3ccc(OC)cc3)c12 [drawing 698]
- inhibition at 30 µM [1]: 51 to 75%
- inhibition at 30 µM [2]: 26 to 50%

SMILES: COCCNc1nc(-c2cn(C)cn2)nc2sc(-c3ccccc3Cl)c(-c3ccc(OC)cc3)c12 [drawing 699]
- inhibition at 30 µM [1]: 76 to 100%
- inhibition at 30 µM [2]: 76 to 100%

SMILES: COCCNc1nc(-c2nccn2C)nc2sc(-c3cccc(OC)c3Cl)c(-c3ccccc3)c12 [drawing 700]
- inhibition at 30 µM [1]: 76 to 100%
- inhibition at 30 µM [2]: 76 to 100%

SMILES: COCCNc1nc(-c2nccn2C)nc2sc(-c3cc(OC)ccc3Cl)c(-c3ccccc3)c12 [drawing 701]
- inhibition at 30 µM [1]: 51 to 75%
- inhibition at 30 µM [2]: 1 to 25%

SMILES: COc1cc(-c2sc3nc(-c4nccn4C)nc(N4CCC(OC)C4)c3c2-c2ccccc2)ccn1 (stereo not drawn) [drawing 702]
- inhibition at 30 µM [1]: 76 to 100%
- inhibition at 30 µM [2]: 76 to 100%
